Experiments:
BAX [1] = molecular target: T1, BAX (Homo sapiens, UniProt Q07812); assay: Competitive fluorescence polarization binding assay (FPA), BAX / FITC-BIM-SAHB; settings: BAX 150 nM, FITC-BIM-SAHB 25 nM; read-out: IC50, competition of FITC-BIM-SAHB by FPA
T1 construct: Human full-length (1-192) wild-type BAX (Q07812); made in house; host or cells: E. coli BL21 (DE3) CodonPlus (DE3)-RIPL
Experimental: Fluorescence polarization assays (FPA) were performed as previously described (Gavathiotis, E., et al. Nat Chem Biol 8, 639-645 (2012)). Direct binding isotherms of BIM-SAHB were measured by incubated FITC-BIM-SAHB (25 nM) with serial dilutions of full-length BAX alone or in the presence of 0.5 or 1 µM EO. Competition binding assays were performed by titrating ED into BAX (150 nM) and FITC-BIM-SAHB (25 nM). Measurements were taken at 10-minute intervals over 60 minutes on a TECAN F200 PRO microplate reader. Reported curves represent 10-minute time point. KD values and IC50 were determined using GraphPad Prism nonlinear fit four-parameter agonist or antagonist versus response with restraints for 100% and 0% bound calculated by the mP of saturated BAX + FITC-BIM-SAHB and FITC-BIM-SAHB alone.
To test this hypothesis, a competitive fluorescence polarization assay (FPA) (Gavathiotis, E., et al. Nat Chem Biol 8, 639-645 (2012)) based on the interaction between BAX and fluorescently-labeled stapled BIM-BH3 peptide (FITC-BIM-SAHB) was used (Gavathiotis, E., et al. Nature 455, 1076-1081 (2008)). […] The IC50 and KD are consistent with a competitive binding mechanism of EO displacing FITC-BIM-SAHB from the N-terminal trigger site of BAX.

BAX [2] = molecular target: T1, BAX; assay: Liposomal permeabilization (ANTS/DPX release) assay; type: biochemical; settings: 50 nM BAX and 5 nM tBID; compared with EO
Experimental: Lipids (Avanti Polar Lipids) at the following ratio, phosphatidylcholine 48%, phosphatidylinositol 10%, dioleoyl phosphatidylserine 10%, phosphatidylethanolamine, 28%, and tetraoleoyl cardiolipin 4%, were mixed in a total of 1 mg, dried and resuspended in 10 mM HEPES, pH 7, 200 mM KCI, and 5 mM MgCl2 with 12.5 mM 8-aminonaphthalene-1,3,6-trisulfonic acid (ANTS) dye and 45 mM p-xylene-bis-pyridinium bromide (DPX) quencher (Molecular Probes) using a water bath sonicator. Liposomes were formed by extrusion of the suspension using Avanti Mini-Extruder (Cat # 610000) with polycarbonate membranes of 0.1 µm pore size (Avanti Polar Lipids). ANTS/DPX encapsulated liposomes were purified from non-encapsulated ANTS/DPX by gel filtration of a 10 mL CL2B-Sepharose (GE Healthcare Life Sciences) gravity-flow column. BAX (50-250 nM) was combined with tBID, BIM, and EO at the indicated concentrations to a volume of 90 µL. Reactions were initiated by the addition of […] of the encapsulated ANTS/DPX liposome stock. ANTS/DPX release was quantified based on the increase in fluorescence intensity that occurs when the ANTS fluorophore is separated from the DPX quencher upon release from the liposomes into solution. Fluorescence (λex = 355 nm and λem = 520 nm) was measured at 1 minute intervals at room temperature (22-25° C.) indicated using a Tecan Infinite M1000 plate reader. In the case of heat activation, reactions were set up as described in the absence of tBID or BIM, and experiments were recorded at 42° C. The percentage release of ANTS/DPX at any given time point was calculated as percentage release=((F-F0)/(F100-F0))(100), where F0 and F100 are baseline and maximal fluorescence, respectively. Triton X-100 (1%) was used to determine the maximum amount of liposomal release per assay and was set to 100%.
Next, EO’s capacity to modulate BAX activity was evaluated using liposomal release assays. […] Instead, EO was able to inhibit both tBID- and BIM BH3-mediated BAX activation (FIGS. 1E, 1F, and 1G). Inhibition of tBID-mediated BAX activation by EO was inversely proportional to the concentration of the tBID activator, consistent with competitive inhibition of BH3-activator binding.

[3] = tested on: platelets of C57BL/6J mice; assay: In vivo mouse platelet experiments; settings: ABT-263 25 mg/kg single dose, oral gavage, within 24 hr
Experimental: Wild type black mice strain C57BL/6J were treated with vehicle, ABT-263 (25 mg/kg, single dose), EO (100 mg/kg, then 3 hrs later 50 mg/kg), or a combination of ABT-263 and EO. EO was formulated in dH2O, and ABT-263 was formulated in 10% ethanol, 30% polyethylene glycol 400, and 60% Phosal 50 PG. Both ABT-263 and EO were administered by oral gavage. Blood samples were collected by submandibular bleed before treatment and 24 hours following treatment, and CBC was acquired. Percentage platelet protection was calculated as follows: % Platelet Protection = (100)(Px - mPABT)/(mPv - mPABT) where Px is the platelet count for a given mouse, mPv is the mean vehicle treated platelet count, and mPABT is the mean ABT-263 treated platelet count. Statistical analysis was performed using one-way ANOVA with select multiple comparisons as shown.
Finally, whether EO can rescue thrombocytopenia induced by the activity of navitoclax was evaluated in mice. The use of navitoclax is limited by on-target toxicity triggering BAK/BAX-mediated platelet apoptosis (Zhang, H. et al. Cell Death Differ 14, 943-951 (2007)). […] This EO effect is distinct from its capacity to stimulate platelet production by differentiation of the megakaryocyte precursors and progenitor cells, which requires 5 days to begin (Erickson-Miller, C. L. et al. Stem Cells 27, 424-430 (2009); Jenkins, J. M. et al. Blood 109, 4739-4741 (2007)).

T1 sequence (Q07812 whole entry): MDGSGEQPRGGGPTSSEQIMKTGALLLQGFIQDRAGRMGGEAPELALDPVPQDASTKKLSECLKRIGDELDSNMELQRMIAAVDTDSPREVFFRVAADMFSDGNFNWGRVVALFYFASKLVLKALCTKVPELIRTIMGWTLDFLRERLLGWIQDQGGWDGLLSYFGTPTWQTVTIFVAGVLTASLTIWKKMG

IC50 (BAX [1]) [µM] | inhibition of BAX in liposomal release assays (BAX [2]) | Compound | platelet loss [3]
> 5 | significantly diminished inhibition | COC(=O)c1cccc(-c2cccc(NN=C3C(=O)N(c4ccc(C)c(C)c4)N=C3C)c2O)c1 [EO-Methyl Ester, eltrombopag methyl ester] | –
– | – | CC1(C)CCC(c2ccc(Cl)cc2)=C(CN2CCN(c3ccc(C(=O)NS(=O)(=O)c4ccc(N[C@H](CCN5CCOCC5)CSc5ccccc5)c(S(=O)(=O)C(F)(F)F)c4)cc3)CC2)C1 [navitoclax] | significant platelet loss
